Laboratory results as given in US10526581B2, “Modulation of cardiac stem-progenitor cell differentiation, assays and uses thereof” (priority 2013, dated 2020).
“Also recorded” adds a separate entry of the source.

Columns and labels:
[1] = test system: Nestin^pos progenitor cells from clonal-derived c-kit^pos eCSCs; test: neurogenic differentiation of Nestin^pos cells from clonal c-kit^pos eCSCs; assay type: cell-based, rat; conditions: differentiation medium, 7 days
Description: It has been previously shown that cardiac side population cells that express the neural progenitor marker, Nestin, can be induced to differentiate into the ectoderm layer, producing neurons and glial cells (15). We then purified for a population of Nestin^pos progenitor cells from clonal-derived c-kit^pos eCSCs. When placed into differentiation medium supplemented with Retinoic Acid or LIF for 7 days, we found up-regulation of GFAP, MATH2/NeuroD6, a neuron specific transcription factor (FIG. 3C), β-3 tubulin arrayed in filaments and bundles (FIG. 3C), neuron-specific enolase (FIG. 3C), acetylcholintransferase (FIG. 3C), doublecortin (DCX), and S-100β (FIG. 3C). Furthermore, after RA differentiation, cells had characteristics of neuronal dendrites, indicating a morphological change that resembled neurons (FIG. 3C).

hCSCs = test: stimulation of hCSCs with inflammatory cytokines, immunogenicity molecules; assay type: cell-based, human
Description: The human c-kit CSCs (hCSCs) from all the donors tested so far (n=8) expressed normal levels of the HLA class I and no detectable levels of HLA class II and the co-stimulatory molecules CD40, CD80 and CD 86 (see primary data example below)> they also fail to express CD 275 but express high levels of PD-L1 (CD274).

rats after ISO damage = conditions: rat, in vivo
c-kit^pos CD45^neg eCSCs [2] = test: BrdU incorporation proliferation assay of c-kit^pos eCSCs with cardiopoietic growth factors and Wnt or TGF-β modulators; assay type: cell-based, rat; conditions: in vitro
Procedure: (§1) c-kit^posCD45^neg eCSCs express functional receptors for these cardiopoetic factors (cGFs) (FIG. 4). In particular, both TGF-β1 and Wnt receptors are activated and signal to their known downstream effectors in eCSCs isolated from ISO injured hearts (FIG. 4). We thus directly tested in vitro the growth response of freshly isolated c-kit^pos CD45^neg eCSCs grown in limited serum (1% ESQ-FBS) to individual cGFs. Dose-response curves were performed to determine the optimal concentration for each cGF (FIG. 13A-H). […] These effects were confirmed by qRT-PCR of cardiomyocyte-specific mRNAs (FIG. 5).
(§2) Wnt/β-catenin and TGF-β/SMADs signaling play critical roles in the regulation of embryonic as well as different tissue-specific stem cell fate (21-23). In particular, these two signaling pathways have distinct functions in mammalian cardiogenesis (24-27). Thus, to extend our findings we have tested through gain and loss of function experiments the effects of Wnt/β-catenin and TGF-β/SMADs signaling pathways on c-kit^pos eCSC fate in vitro. […] To disrupt Wnt/ρ-catenin, c-kit^pos eCSCs were either treated with Dickkopf-1 (Dkk-1), an inhibitor of canonical Wnts or transfected with a specific short hairpin RNA for β-catenin (β-cat^shRNA). […] The positive and negative modulators of Wnt/β-catenin physiologically acted on their known molecular targets by respectively stabilizing or degrading β-catenin and its LEF/TCF-dependent transcriptional activity (FIG. 6). […] On the other hand, Dkk-1 increased c-kit^pos CSC myocyte specification (FIG. 5), even though its effect was not sufficient to produce a fully differentiated phenotype as indicated by the lack of cells which expressed abundant and organised sarcomeric structures (FIG. 5).

c-kit^pos eCSCs = test: cardiomyocyte differentiation of c-kit^pos eCSCs in differentiation medium (cTnI^pos cells, qRT-PCR); assay type: cell-based, rat; conditions: for differentiation of eCSCs into the cardiomyocyte lineage (myocyte specification): differentiation medium; for number of myocyte differentiating (cTnI^pos) cells / transcription of myogenic lineage markers: differentiation medium (LIF withdrawal); for transcription of myogenic lineage markers: qRT-PCR
Procedure: FIGS. 4(A-E). […] Nuclei were identified by DAPI in blue. Bar=50 μm. […] Data are Mean±SD of n=6/condition. […]
RNA was extracted using Qiagen RNeasy columns and was reverse transcribed using first strand cDNA synthesis with random or oligo-dT primers (Applied Biosystems). Residual amounts of DNA were removed by on-column DNase treatment using the RNase-Free DNase Set (Qiagen) during the RNeasy procedure. Quantitative RT-PCR was performed using SYBR Green (BioRad) on a MyIQ thermocycler (BioRad). The PCR-reaction included 2 μl of template cDNA, and 300 nM forward and reverse primers. PCR efficiency was evaluated by using a standard curve of five serial dilution points. Data were analysed using BioRad IQ software and mRNA was normalized to the housekeeping gene, GAPDH. All reactions were carried out in triplicate.

c-kit^pos CD45^neg eCSCs [3] = test: clonogenic assay of c-kit^pos eCSCs; assay type: cell-based, rat; conditions: in vitro
Procedure: as §1, §2

[4] = test system: rats with ISO+5-FU cardiomyopathy
[5] = test system: CSCs^GFP/TK and adult rat ventricular myocytes (ARVM); test: GCV in vitro on CSCs^GFP/TK growth and on co-cultured adult rat ventricular myocytes; assay type: cell-based
Procedure: c-kit^pos CSCs were grown in CSC growth medium consisting of Dulbecco's MEM/Ham's F12 (DMEM/F12; […] Millipore), bFGF (10 ng/ml; Peprotech), EGF (20 ng/ml; Peprotech), insulin-transferrin-selenite (ITS; […] Ganciclovir (GCV, 10^−5M) was added and cells were cultured for 3 and 7 days. Mouse c-kit^pos CSCs or c-kit^pos CSC-derived cardiospheres were cultured on glass chamber slides (BD Falcon), fixed with 4% PFA for 20 min, and then stained. […] For cardiomyocyte/CSC^GFP/TK co-culture assays, 3× wells/condition were fixed and stained to assess the number of apoptotic (TdT and caspase-3) cardiomyocytes (Kawaguchi et al., 2010). Cardiomyocytes were identified by co-staining for cTnI. The percentage of TdT-positive and caspase-3 positive cardiomyocytes was determined by counting 20 random fields at ×40 magnification for each well. Numbers were expressed as a percentage of TdT- or caspase-3 positive cardiomyocytes relative to the total number of cardiomyocytes counted. FITC or Texas Red-conjugated 2° Abs were used. Nuclei were stained with DAPI. Fluorescence was visualized and images acquired with confocal microscopy (Zeiss LSM 510 or 710).

Molecule | c-kit^pos eCSC proliferation (growth, expansion) (c-kit^pos CD45^neg eCSCs [2]) | number of myocyte differentiating (cTnI^pos) cells (c-kit^pos eCSCs) | transcription of myogenic lineage markers (c-kit^pos eCSCs) | c-kit^pos eCSC clonogenicity (c-kit^pos CD45^neg eCSCs [3]) | further results
LIF: supplement of the neural differentiation medium | – | – | – | – | expression of neural markers (GFAP, MATH2/NeuroD6, β-3 tubulin and others) [1]: up-regulation
IFNγ: inflammatory cytokine | – | – | – | – | expression of HLA class I and class II on hCSCs (hCSCs): significantly enhanced; expression of the co-stimulatory molecules CD40, CD80 and CD 86 on hCSCs (hCSCs): does not induce
O=c1[nH]cc(F)c(=O)[nH]1 [5-FU, 5-fluorouracil] | – | – | – | – | toxic effects of the 5-FU regime (rats after ISO damage): did not cause any cellular or functional cardiac or extra-cardiac toxic effects
FGF-2: cardiopoietic growth factor | significantly increased | – | – | – | –
TGF-β1: cardiopoietic growth factor | did not affect; also recorded: Neither BMP-2, BMP-4, TGF-β1 supplementation nor Smad2 knock-down affected | significantly induced | significantly induced | did not affect; also recorded: Neither BMP-2, BMP-4, TGF-β1 supplementation nor Smad2 knock-down affected | differentiation of eCSCs into the cardiomyocyte lineage (myocyte specification) (c-kit^pos eCSCs): promoted differentiation
Nc1nc(O)c2ncn(COC(CO)CO)c2n1 [GCV, Ganciclovir] | – | – | – | – | effect of GCV treatment on recovered cellular and functional parameters ([4]; ISO+5-FU+CSCs^GFP/TK group): dramatic reversal of all the recovered cellular and functional parameters; adverse effects of GCV treatment ([4]; rat, in vivo): did not cause any histological or functional adverse effects; adult rat ventricular myocyte (ARVM) apoptosis ([5]; GCV 10^−5 M, alone or co-cultured with CSC^GFP/TK): does not cause any relevant effect; growth of Lenti-GFP/TK-transfected CSCs (CSCs^GFP/TK) ([5]; GCV 10^−5 M, in vitro): growth arrest; survival of adult rat ventricular CMs cultured with CSCs^GFP/TK ([5]; GCV at a concentration sufficient to kill the CSCs^GFP/TK): does not affect survival
IGF-1: cardiopoietic growth factor | significantly increased | – | – | – | –
O=C1Nc2cc(Br)ccc2/C1=C1/Nc2ccccc2/C1=N\O [BIO, 6-bromoindirubin-3′-oxime] | stimulate | significantly reduced | significantly reduced | – | –
HGF: cardiopoietic growth factor | significantly increased | – | – | – | –
Wnt3a: soluble Wnt-3a, canonical Wnt growth factor (protein, UniProt P56704 19-352, looked up) Protein Wnt-3a: SYPIWWSLAVGPQYSSLGSQPILCASIPGLVPKQLRFCRNYVEIMPSVAEGIKIGIQECQHQFRGRRWNCTTVHDSLAIFGPVLDKATRESAFVHAIASAGVAFAVTRSCAEGTAAICGCSSRHQGSPGKGWKWGGCSEDIEFGGMVSREFADARENRPDARSAMNRHNNEAGRQAIASHMHLKCKCHGLSGSCEVKTCWWSQPDFRAIGDFLKDKYDSASEMVVEKHRESRGWVETLRPRYTYFKVPTERDLVYYEASPNFCEPNPETGSFGTRDRTCNVSSHGIDGCDLLCCGRGHNARAERRREKCRCVFHWCCYVSCQECTRVYDVHTCK | significantly increased | significantly reduced | significantly reduced | most effective | c-kit^pos eCSC proliferation (growth, expansion) (c-kit^pos CD45^neg eCSCs [2]; listed as Wnt-3a): stimulate; c-kit^pos eCSC clonogenicity (c-kit^pos CD45^neg eCSCs [3]; listed as Wnt-3a): stimulate
Wnt5a: non-canonical Wnt, cardiopoietic growth factor (protein, UniProt P41221 62-380, looked up) Protein Wnt-5a: IIGAQPLCSQLAGLSQGQKKLCHLYQDHMQYIGEGAKTGIKECQYQFRHRRWNCSTVDNTSVFGRVMQIGSRETAFTYAVSAAGVVNAMSRACREGELSTCGCSRAARPKDLPRDWLWGGCGDNIDYGYRFAKEFVDARERERIHAKGSYESARILMNLHNNEAGRRTVYNLADVACKCHGVSGSCSLKTCWLQLADFRKVGDALKEKYDSAAAMRLNSRGKLVQVNSRFNSPTTQDLVYIDPSPDYCVRNESTGSLGTQGRLCNKTSEGMDGCELMCCGRGYDQFKTVQTERCHCKFHWCCYVKCKKCTEIVDQFVCK | did not affect | – | – | did not affect | differentiation of eCSCs into the cardiomyocyte lineage (myocyte specification) (c-kit^pos eCSCs): promoted differentiation
BMP-4: cardiopoietic growth factor (protein, UniProt P12644 293-408, looked up) Bone morphogenetic protein 4: SPKHHSQRARKKNKNCRRHSLYVDFSDVGWNDWIVAPPGYQAFYCHGDCPFPLADHLNSTNHAIVQTLVNSVNSSIPKACCVPTELSAISMLYLDEYDKVVLKNYQEMVVEGCGCR | did not affect; also recorded: Neither BMP-2, BMP-4, TGF-β1 supplementation nor Smad2 knock-down affected | significantly induced | significantly induced | did not affect; also recorded: Neither BMP-2, BMP-4, TGF-β1 supplementation nor Smad2 knock-down affected | differentiation of eCSCs into the cardiomyocyte lineage (myocyte specification) (c-kit^pos eCSCs): promoted differentiation
Dkk-1: Dickkopf-1, an inhibitor of canonical Wnts (protein, UniProt O94907 32-266, looked up) Dickkopf-related protein 1: TLNSVLNSNAIKNLPPPLGGAAGHPGSAVSAAPGILYPGGNKYQTIDNYQPYPCAEDEECGTDEYCASPTRGGDAGVQICLACRKRRKRCMRHAMCCPGNYCKNGICVSSDQNHFRGEIEETITESFGNDHSTLDGYSRRTTLSSKMYHTKGQEGSVCLRSSDCASGLCCARHFWSKICKPVLKEGQVCTKHRRKGSHGLEIFQRCYCGEGLSCRIQKDHHQASNSSRLHTCQRH | significant decrease | – | – | significant decrease | differentiation of eCSCs into the cardiomyocyte lineage (myocyte specification) (c-kit^pos eCSCs): increased
BMP-10: cardiopoietic growth factor (protein, UniProt O95393 317-424, looked up) Bone morphogenetic protein 10: NAKGNYCKRTPLYIDFKEIGWDSWIIAPPGYEAYECRGVCNYPLAEHLTPTKHAIIQALVHLKNSQKASKACCVPTKLEPISILYLDKGVVTYKFKYEGMAVSECGCR | – | significantly induced | significantly induced | – | –
